Two molecules from patent publication US9486434B2, “Method for delivery and use of isothiocyanates for prophylaxis and/or therapy of bladder cancer” (Health Research Inc., priority 2010, dated 2016) can be followed below.

SMILES strings stand for the structures.

For data set [1], the system named is normal human bladder epithelial cells (HUC). Nature of the data set: Cell cycle arrest and apoptosis in HUC. It is filed as cell-based. Conditions: 7.5 and/or 15 microM. On the procedure:
FIG. 3. The effect of AITC on cell survival and proliferation. AITC was evaluated at the indicated concentrations in human bladder cancer UM-UC-3 cells, rat bladder cancer AY-27 cells, and normal human bladder epithelial cells (HUC). A. Cell growth inhibition, measured by MTT assay, 72-h AITC treatment. IC50 was calculated from nonlinear regression curve fit. B. Cell cycle arrest (□, subG1; ? , G1; ? , 5; ▪, G2/M), measured by flow cytometry, 24 h AITC treatment. C. Apoptosis induction, measured by an ELISA assay, 24 h AITC treatment. Mean±SE, n=3-6), *P<0.05.

In data set [2] the test system is UM-UC-3 cells. Nature of the data set: Wright-Giemsa staining for mitotic figures, UM-UC-3 cells. It is filed as cell-based, human. The conditions noted are these: 24 h, compared with G2/M by flow cytometry. On the procedure: (§1) FIG. 4. Effect of AITC on mitosis, tubulin expression and apoptosis in human bladder cancer UM-UC-3 cells. Cells were treated with vehicle or AITC for 24 h (each numerical value is mean±SD). A. Flow cytometry analysis for cell cycle arrest. B. Wright-Giemsa staining for counting mitotic figures. Arrows point to cells in mitosis or mitotic catastrophe. C. Immunofluorescent staining of microtubules (green color) and DNA staining with DAPI (blue color). D. Western blotting of tubulins (GAPDH as a loading control). E. Loss of mitochondrial transmembrane potential (Δψm) measured by flow cytometry. F. Western blotting of caspase-9 and caspase-3 (GAPDH as a loading control). G. Apoptotic cells (TUNEL cells) measured by flow cytometry. Cells in F and G were co-treated with or without 20 microM Z-LEHD-FMK (a caspase-9 inhibitor).
For orientation: In flow cytometry, cells or beads pass a laser one at a time.

For data set [3], the system named is α-tubulin, β-tubulin, γ-tubulin, caspase-9, caspase-3, VEGF in UM-UC-3 cells. Nature of the data set: Western blotting in UM-UC-3 cells (tubulins, caspases, VEGF). The conditions noted are these: 24 h. It is filed as cell-based, human. On the procedure: as §1
(§2) FIG. 8. Inhibition of bladder cancer development by MSP-1. Female F344 rats were inoculated with AY-27 cells intravesically via a urethra catheter to initiate development of orthotopic bladder cancer. Oral administration of MSP-1 of vehicle (water) once daily was started 1 day after cancer cell inoculation and ended 3 weeks later. The number of rats per group varied from 11-29. A. Initial (□) and final (▪) body weights. B. Tumor weight was calculated by subtracting the average normal bladder weight from tumor-bearing bladder weight. *P<0.05. Each value in A and B is mean±SEM. C. Percentage of bladder where the tumor invaded the muscle tissue. D. The effects of MSP-1 on selected anticancer targets in UM-UC-3 cells (in vitro), AY-27 cells (in vitro) and AY-27 tumors (in vivo). The cells were treated with MSP-1 at the sinigrin concentrations of 13 and 26 microM for 24 h. The bladder tumors were removed from rats treated with MSP-1 at the sinigrin doses of 9 or 90 micromols/kg once daily for 3 weeks, started 1 day after cancer cell inoculation. Cell lysates and tumor homogenates were analyzed by Western blotting, using GAPDH as a loading control.
Western blot analysis. […]
A general note: Immunoblotting shows a protein as a band on a membrane.

Data set [4] concerns UM-UC-3 cells. Nature of the data set: Mitochondria-mediated apoptosis in UM-UC-3 cells (Δψm, cytochrome c, TUNEL). The data set is classed as cell-based, human. Here is the method:
as §1

Data set [5] has as its system caspase-3, α-tubulin, β-tubulin, VEGF in AY-27 cells. Nature of the data set: Western blotting in cultured AY-27 cells. The conditions noted are these: NAC-AITC 7.5 and 15 μM, 24 h. The data set is classed as cell-based, rat. Here is the method: as §2
FIG. 13. Molecular targets of NAC-AITC in bladder cancer. AY-27 cells in culture were treated with NAC-AITC for 24 h. The results are representative of at least two experiments. The bladder tumors were removed from rats, which were treated with NAC-AITC orally at 10 μmol/kg once daily for 3 weeks, starting 1 day after intravesicular inoculation of AY-27 cells. The results are representative of three to five tumors assayed in each group. Cell lysates and tumor tissue homogenates were analyzed by western blot analysis, using GAPDH as a loading control.
Western blot analysis. Cells after harvest were washed with ice-cold phosphate-buffered saline, suspended in radioimmunoprecipitation assay lysis buffer supplemented with a protease inhibitor cocktail (Sigma-Aldrich) and further lysed by sonication. […]

The nature of data set [6]: Storage stability at room temperature. The data set is classed as physicochemical. The conditions noted are these: data not shown.
The nature of data set [7]: Dissociation of NAC-AITC in phosphate buffer (HPLC). The data set is classed as physicochemical. Conditions: pH 7.4, 37° C. On the procedure: FIG. 11. Dissociation of NAC-AITC. NAC-AITC at 100 μM was freshly prepared in 20 mM sodium phosphate buffer (pH 7.4) containing 1% DMSO and incubated at 37° C. for 0, 0.5, 1, 2, 3, 4, 5 and 24 h. At each time point, an aliquot of the solution was analyzed for remaining NAC-AITC by HPLC. Each value is a mean±SD (n=3).
Measurement of dissociation of NAC-AITC. The assay was based on a known protocol. Briefly, a solution of NAC-AITC was prepared as rapidly as possible by dilution of 0.2 ml of 5 mM NAC-AITC freshly prepared in 20 mM sodium phosphate buffer (pH 7.4): DMSO (1:1) with 20 mM sodium phosphate buffer (pH 7.4) to 10 ml, resulting in a 0.1 mM NAC-AITC solution in 1% DMSO. An aliquot (0.05 ml) was immediately analyzed by HPLC; the remainder of the solution was incubated at 37° C. on a shaker, and an aliquot (0.05 ml) was analyzed by HPLC at different time points up to 24 h. The HPLC condition was the same as used in the urine analysis described above. A plot of the conjugate peak area remaining versus time was generated to determine the half-time of decomposition.

On to `C=CCN=C=S` [AITC, allyl isothiocyanate], for which, in data set [1], the “cell cycle arrest and apoptosis in HUC” value was “failed to cause cell cycle arrest and apoptosis”. Also, the arrest in mitosis result in the data set on UM-UC-3 cells [2] is “arrested cells almost exclusively in mitosis”. In data set [3], the “caspase-9 and caspase-3 activation” value is “activation of both caspase-9 and caspase-3”; the “α-tubulin and β-tubulin levels” value is given as “significantly down regulated”. Further, in the data set with UM-UC-3 cells [4] (24 h, flow cytometry), the TUNEL-positive cells entry was “formation of TUNEL-positive cells” and the mitochondrial transmembrane potential result is given as “caused a loss of mitochondrial transmembrane potential”. The cytochrome c release result in the data set on UM-UC-3 cells [4] (result not shown) is on record as “release of cytochrome c from mitochondria to cytoplasm”.

For `C=CCNC(=S)SC[C@H](NC(C)=O)C(=O)O` [NAC-AITC, N-acetyl-S—(N-allylthiocarbamoyl)cysteine], in data set [5], the VEGF level result was “downregulation”; the caspase-3 cleavage/activation entry is “dose-dependent cleavage/activation”; the “α-tubulin and β-tubulin levels” value is reported as “downregulation”. Moreover, the “stability when kept dry” value in data set [6] is on record as “at least 16 months”. In addition, in data set [7], the half-time of dissociation is on record as about 12 h.
